Assay results as given in US10294230B2, “3,3-difluoropiperidine carbamate heterocyclic compounds as NR2B NMDA receptor antagonists” (Rugen Holdings (Cayman) Limited, priority 2015, dated 2019).

Legend:
Format in all cases: in vivo
[1] = system: formalin-induced nociceptive behavior; assay: Rat Formalin Model; conditions: rats, 10, 30 and 60 mpk i.p., mesylate salt
Experimental: The rat formalin model is a tonic model of continuous pain resulting from formalin-induced spontaneous nociceptive behaviors. Intra-paw injection of formalin is a commonly used model to measure spontaneous nociceptive behaviors in rodents (Dubuisson, D. and Dennis, S. G. Pain 4:161, 1977). Subcutaneous plantar injection of formalin causes a bi-phasic nocifensive behavioral response in rodents. The early phase (phase-1) lasts for about 5-10 min following which an interphase occurs without any discernible nociceptive reactions after which the late phase (phase-II) nociceptive reaction ensues continuing from about 20-60 min following formalin injection. Formalin model is a model of tonic, persistent pain, and is widely used for rapid screening of novel analgesic compounds. […] In the present example, effects of test item were assessed in 0-5 minutes from the early phase (phase-I) and 20-35 minutes from the late phase (phase-II) of formalin-induced nociceptive behavior. […]
For all groups, animals were acclimated to the observation chamber for 15 minutes immediately prior to formalin injection. All animals received an intraplantar subcutaneous injection of 50 μL of 5% formalin into the left hind paw and then placed immediately into an observation chamber and formalin-evoked spontaneous nociceptive behaviors in the rats were continuously recorded for 0-60 min using a commercial camcorder. […]

[2] = system: KCl-induced cortical spreading depression; assay: Cortical Spreading Depression (CSD), aura phase of migraine model; conditions: rats
Experimental: The cortical spreading depression model is utilized to investigate whether treatment with compounds of the present invention affect electrophysiological and hemodynamic events in a rat model of migraine.
Rats were anesthetized with 5% isoflurane (in 70% N2O and 30% O2; flow 300 ml/min) and placed in a stereotactic frame. […] The rectal temperature was maintained at 37.0±1.0° C. with a homeothermic blanket system. The skin was opened by a medial incision and retracted laterally. Three burr holes were drilled under saline cooling over the right hemisphere at the following coordinates (mm from bregma): (1) posterior 4.5, lateral, 2.0 (occipital cortex): KCl application site; (2) posterior 0.5, lateral 2.0 (parietal cortex): LDF recording site; (3) anterior 2, lateral 2 (frontal cortex): DC potential recording site. A laser-Doppler flow probe (Oxyflow, Oxford Optronics, UK) to monitor CBF and an invasive Ag/AgCl electrode for measuring direct current (DC) potential shifts were placed in the parietal and frontal cortex burr holes on the intact dura and in the cortex, respectively. The laser-Doppler flow probe was positioned in an area free of large pial and dural vessels to minimize a large-vessel contribution to the signal. For the DC-potential measurement, a reference electrode was fixed in the neck. Dura overlying the occipital cortex was gently removed and care was taken to avoid bleeding. After surgical preparation, the cortex was allowed to recover for 15 minutes under saline irrigation. A cotton ball (2 mm diameter) soaked with 1M KCl was placed on the pial surface and kept moist by placing 5 μl of KCl solution every 15 minutes. Test compound or vehicle was administered ten (10) minutes prior to CSD initiation. […] The number of KCl-induced CSDs was counted for 2 hours. The CBF and DC-potentials were monitored continuously starting from 5 minutes before KCl exposure.
Test compound E1-1.2 was administered as a mesylate salt (mpk based on molecular weight of the mesylate salt).
The data was collected in Windaq acquisition software (Dataq Instruments, USA) at 20 kHz. The raw data was analyzed in Clampfit program (Axon Instruments, USA). The signals were low pass filtered (cut off range 5-10000 Hz) that CSD episodes in DC and CBF could be confirmed. The following parameters were analyzed: i) the number, duration and amplitude of DC-potentials, and ii) the number and amplitude of CBF events.
Doses were given as milligram per kilogram (mpk). […] Bars represent mean±Standard Error of Mean (SEM), and differences were considered to be statistically significant at the P<0.05 level (n=8, * different from vehicle group). Statistical analysis was performed using StatsDirect statistical software. Differences between groups were analyzed by using 1-way ANOVA and Dunnett's post hoc test.

[3] = system: haloperidol-induced catalepsy; assay: Haloperidol-Induced Catalepsy (HIC) Model; conditions: rats
From the text: The Haloperidol-induced Catalepsy (HIC) model detects antipsychotic activity and the action of NR2B selective antagonists (Steece-Collier et al. Exp. Neurol. 163: 239, 2000) and was based on methods described by Chermat and Simon (J. Pharmacol., 6, 493-496, 1975). The capacity to induce catalepsy serves as an index of the liability of a test substance to induce extrapyramidal side-effects, in particular Parkinsonism. Antagonism of antipsychotic-induced catalepsy can thus serve to detect anti-Parkinson potential.
Rats were injected with haloperidol (1 mg/kg i.p.) and were examined for catalepsy at 30 minute intervals up to 360 minutes. Presence (+) or absence (−) of catalepsy was assessed by three procedures: 1) imposed crossing of the ipsilateral fore- and hind-limbs; 2) placing the animal in the Buddha position; 3) the tilting board, an automatic device that, 5 seconds after positioning the rat, displaces the rat from a horizontal to vertical position and back while it clings to a wire grid with its front paws. Akinesia and catalepsy were assessed depending on whether or not the animal moves before (akinesia) or during operation of the board (catalepsy).
The 4 scores were cumulated over time to give a global catalepsy score per animal. Six rats were studied per group. The test was performed blind (test substances versus vehicle). Test substances were evaluated at 1 or more doses, administered typically using 0.5% dimethylsulfoxide, 4% hydroxypropyl-b-cyclodextrin water as a vehicle p.o. 15 minutes before haloperidol (i.e. 45 minutes before the first measurement), and compared with a vehicle control group.
Amphetamine (8 mg/kg p.o.), administered 60 minutes before the test (i.e. 90 minutes before the first measurement), was used as reference substance. Data with the test substances were analyzed by comparing treated groups with vehicle control using Kruskal-Wallis Test followed by Mann-Whitney U tests at each time and for cumulated score. Data with the reference substance were analyzed using Mann-Whitney U tests.

[4] = E1-1.2 at various doses, MK-801 1.25 mg/kg

Compound: Cc1ccc(COC(=O)N2CC[C@H](CNc3nccn4cnnc34)C(F)(F)C2)cc1 [Compound E1-1.2, (+)-R-4-methylbenzyl 4-(([1,2,4]triazolo[4,3-a]pyrazin-8-ylamino)methyl)-3,3-difluoropiperidine-1-carboxylate]
- cumulative time spent on nociceptive behavior in phase I (0-5 mins) [1]: decreased
- cumulative time spent on nociceptive behavior in phase II (20-35 mins) [1]: decreased
- magnitude of CBF vs vehicle [2]: unchanged
- number of DC potentials vs vehicle ([2]; 3 mpk, 10 mpk and 30 mpk, mesylate salt): significantly decreased
- number of CBF events vs vehicle ([2]; E1-1.2 at 10 mg/kg, MK-801 at 1.25 mg/kg): decreased
- amplitude of DC potentials vs vehicle [2, 4]: not statistically different
- duration of DC potentials vs vehicle [2, 4]: not statistically different
- cumulated score of catalepsy over 360 mins ([3]; 1 mg/kg p.o.): 17.0
- cumulated score of catalepsy over 360 mins ([3]; 3 mg/kg p.o.): 15.8
- cumulated score of catalepsy over 360 mins ([3]; p.o., dose not printed in the sentence (other doses 1 and 3 mg/kg)): 2.0
